From ChEMBL document CHEMBL3638859, “Aryl benzylamine compounds” (2014)

Biological target: Sphingosine 1-phosphate receptor 1 (Homo sapiens, UniProt P21453)
Assay: Receptor Calcium FLIPR Antagonist Assay: The assay measures intracellular changes of Ca2+ mediated by the synthetic probing agonist 3-{[2-(2-Trifluoromethyl-biphenyl-4-yl)-benzo[b]thiophen-5-ylmethyl]-amino}-propionic acid (GNF-AC-1) in the HeLa-S1P1/Galpha16 cell clone 1: HeLa (human cervix carcinoma, ATCC CCL2) cells stably expressing N-terminally myc-tagged human S1P1 receptors (GenBank accession No. NM001400; UNIPROT P21453) and promiscuous Galpha16 protein (GenBank accession number M63904, Swissprot P30679) are cultured at 37 C., 5% CO2, and 95% relative humidity. The cells are plated in 384 well black plates (10'000 cells per well). After 24 hours the cells are loaded with Fluo-4-AM (1.6 uM in HBSS and 2.5 mM probenicid) for 1 hour at 37 C. After washing, the cells are transferred to the FLIPR. The test compounds are added at different concentrations (<=100 uM) in HBSS in the presence of 0.1% BSA and changes in fluorescence are recorded (indication of agonism).
Format: functional, cell-based

Chain of Sphingosine 1-phosphate receptor 1 (P21453 whole entry): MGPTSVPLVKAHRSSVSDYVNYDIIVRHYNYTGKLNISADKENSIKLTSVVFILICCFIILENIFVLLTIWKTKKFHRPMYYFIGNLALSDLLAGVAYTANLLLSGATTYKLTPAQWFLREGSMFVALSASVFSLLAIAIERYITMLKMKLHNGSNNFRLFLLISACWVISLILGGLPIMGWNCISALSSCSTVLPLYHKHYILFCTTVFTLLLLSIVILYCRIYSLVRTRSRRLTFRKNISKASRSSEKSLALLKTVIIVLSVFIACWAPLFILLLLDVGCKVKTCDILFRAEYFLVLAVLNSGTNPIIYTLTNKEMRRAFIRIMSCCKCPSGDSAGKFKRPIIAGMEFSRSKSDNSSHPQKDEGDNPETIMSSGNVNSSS

An IC50 of 2.4 nM was found for `CC[C@@H](Nc1ccc(Cl)c(CNCCC(=O)O)c1)c1cc(C)c(Cl)c(C)c1` in this work.

An IC50 of 0.1 nM was found for `Cc1cc([C@H](Nc2ccc(F)c(CN3CC(C(=O)O)C3)c2)C(F)(F)F)ccc1Cl` in this work.
